For the test, the system named is CD2F1 mice, L1210 leukemia ip, survival T/C. Briefly: NCI In Vivo Anticancer Drug Screen. Data for tumor model L1210 Leukemia (intraperitoneal) in CD2F1 (CDF1) mice. Conditions: higher = longer survival. The method in brief: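 In this screen, transplantable tumors were grown in mice given either the compound or its vehicle. Results were expressed as the treated measurement relative to the control measurement.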

[1] abbreviates: endpoint: mean survival time, dose: 100.0 mg/kg/injection, schedule: Q04DX003 (ip), vehicle: saline with Tween-80.
Setting [2] is: endpoint: mean survival time, dose: 200.0 mg/kg/injection, schedule: Q04DX003 (ip), vehicle: saline with Tween-80.
The mark [3] stands for this setting: endpoint: mean survival time, dose: 400.0 mg/kg/injection, schedule: Q04DX003 (ip), vehicle: saline with Tween-80.
Setting [4] is: endpoint: mean survival time, dose: 100.0 mg/kg/injection, schedule: Q04DX003 (ip), vehicle: saline.
[5] abbreviates: endpoint: mean survival time, dose: 200.0 mg/kg/injection, schedule: Q04DX003 (ip), vehicle: saline.
The mark [6] stands for this setting: endpoint: mean survival time, dose: 400.0 mg/kg/injection, schedule: Q04DX003 (ip), vehicle: saline.

T/C data for 16 compounds are collected here from PubChem BioAssay AID256 (DTP/NCI, 2004).

“And” between values parts separate entries of the source, which are not always exact repeats. Equal entries are not always repeated. Toxic doses and inconclusive results are not listed.

`N#Cc1cn(C2OC(CO)C(O)C2O)c2ncn3ncnc3c12` (centres undefined): the T/C by setting is: (endpoint: mean survival time, dose: 3.13 mg/kg/injection, schedule: Q01DX005 (ip), vehicle: water) 102 % of control; (endpoint: mean survival time, dose: 6.25 mg/kg/injection, schedule: Q01DX005 (ip), vehicle: water) 102 % of control; (endpoint: mean survival time, dose: 12.5 mg/kg/injection, schedule: Q01DX005 (ip), vehicle: distilled water + Tween-80) 122 % of control; (endpoint: mean survival time, dose: 12.5 mg/kg/injection, schedule: Q01DX005 (ip), vehicle: water) 112 % of control; (endpoint: mean survival time, dose: 25.0 mg/kg/injection, schedule: Q01DX005 (ip), vehicle: distilled water + Tween-80) 112 % of control; (endpoint: mean survival time, dose: 25.0 mg/kg/injection, schedule: Q01DX005 (ip), vehicle: water) 120 % of control. Also, the T/C was 116 % of control (endpoint: mean survival time, dose: 50.0 mg/kg/injection, schedule: Q01DX005 (ip), vehicle: distilled water + Tween-80) and 106 % of control (endpoint: mean survival time, dose: 100.0 mg/kg/injection, schedule: Q01DX005 (ip), vehicle: distilled water + Tween-80).

`CC12CCC(OC3CCCCO3)CC1=CCC1C2CCC2(C)C1CCC21CCNP(=O)(N(CCCl)CCCl)O1` (centres undefined): the T/C (endpoint: mean survival time, dose: 12.5 mg/kg/injection, schedule: Q01DX005 (ip), vehicle: other) is 100 % of control; the T/C (endpoint: mean survival time, dose: 25.0 mg/kg/injection, schedule: Q01DX005 (ip), vehicle: other) was 91 % of control; the T/C (endpoint: mean survival time, dose: 50.0 mg/kg/injection, schedule: Q01DX005 (ip), vehicle: other) is 95 % of control; the T/C (endpoint: mean survival time, dose: 100.0 mg/kg/injection, schedule: Q01DX005 (ip), vehicle: other) was 95 % of control; the T/C (endpoint: mean survival time, dose: 125.0 mg/kg/injection, schedule: Q01DX001 (ip), vehicle: Klucel (hydroxypropylcellulose) (HPC)) is 95 % of control; the T/C (endpoint: mean survival time, dose: 250.0 mg/kg/injection, schedule: Q01DX001 (ip), vehicle: Klucel (hydroxypropylcellulose) (HPC)) is 96 % of control. Moreover, the T/C is, setting by setting: (endpoint: mean survival time, dose: 500.0 mg/kg/injection, schedule: Q01DX001 (ip), vehicle: Klucel (hydroxypropylcellulose) (HPC)) 101 % of control; (endpoint: mean survival time, dose: 1000.0 mg/kg/injection, schedule: Q01DX001 (ip), vehicle: Klucel (hydroxypropylcellulose) (HPC)) 98 % of control.

With `Cc1onc(-c2ccccc2)c1C(=O)O`, the T/C under setting [1] is 101 % of control, the T/C under setting [2] was 93 % of control and the T/C under setting [3] was 89 % of control.

For `O=NNc1ccc2cccnc2n1`, the T/C runs as follows: (endpoint: median survival time, dose: 12.5 mg/kg/injection, schedule: Q01DX005 (ip), vehicle: water) 153 % of control; (endpoint: median survival time, dose: 25.0 mg/kg/injection, schedule: Q01DX005 (ip), vehicle: water) 162 % of control; (endpoint: median survival time, dose: 50.0 mg/kg/injection, schedule: Q01DX005 (ip), vehicle: water) 164 % of control; (endpoint: median survival time, dose: 60.0 mg/kg/injection, schedule: Q01DX005 (ip), vehicle: water) 223 % of control; (endpoint: median survival time, dose: 100.0 mg/kg/injection, schedule: Q01DX005 (ip), vehicle: water) 175 % of control and 181 % of control; (endpoint: median survival time, dose: 166.66 mg/kg/injection, schedule: Q01DX005 (ip), vehicle: water) 105 % of control.

Take `COc1cccc(CN2CCN(N=O)CC2)c1`: the T/C reads like this: (endpoint: mean survival time, dose: 12.5 mg/kg/injection, schedule: Q01DX009 (ip), vehicle: Klucel (hydroxypropylcellulose) (HPC)) 98 % of control; (endpoint: mean survival time, dose: 25.0 mg/kg/injection, schedule: Q01DX009 (ip), vehicle: Klucel (hydroxypropylcellulose) (HPC)) 93 % of control; (endpoint: mean survival time, dose: 50.0 mg/kg/injection, schedule: Q01DX009 (ip), vehicle: Klucel (hydroxypropylcellulose) (HPC)) 103 % of control; (endpoint: mean survival time, dose: 100.0 mg/kg/injection, schedule: Q01DX009 (ip), vehicle: Klucel (hydroxypropylcellulose) (HPC)) 103 % of control; (endpoint: mean survival time, dose: 200.0 mg/kg/injection, schedule: Q01DX009 (ip), vehicle: Klucel (hydroxypropylcellulose) (HPC)) 101 % of control; (endpoint: mean survival time, dose: 400.0 mg/kg/injection, schedule: Q01DX009 (ip), vehicle: Klucel (hydroxypropylcellulose) (HPC)) 93 % of control.

In the case of `C=C1C(=O)O[C@@H]2C[C@@H](C)[C@@H]3C=CC(=O)[C@@]3(C)[C@@H](O)[C@H]12`, the T/C (endpoint: mean survival time, dose: 8.0 mg/kg/injection, schedule: Q04DX003 (ip), vehicle: saline with Tween-80) was 117 % of control.

As for `COc1cc2c(c(OC)c1OC)-c1ccc(SC)c(=O)cc1[C@@H](NC1OC(COC(C)=O)C(OC(C)=O)C(OC(C)=O)C1OC(C)=O)CC2` (some centres undefined), the T/C runs as follows: (endpoint: mean survival time, dose: 1.5 mg/kg/injection, schedule: Q01DX009 (ip), vehicle: other) 97 % of control; (endpoint: mean survival time, dose: 3.0 mg/kg/injection, schedule: Q01DX009 (ip), vehicle: other) 97 % of control; (endpoint: mean survival time, dose: 6.0 mg/kg/injection, schedule: Q01DX009 (ip), vehicle: other) 97 % of control; (endpoint: mean survival time, dose: 12.0 mg/kg/injection, schedule: Q01DX009 (ip), vehicle: other) 96 % of control; (endpoint: mean survival time, dose: 24.0 mg/kg/injection, schedule: Q01DX009 (ip), vehicle: other) 96 % of control.

Consider `O/N=C(\c1ccccc1)C1C(/C(=N/O)c2ccccc2)C1c1ccccc1` (centres undefined) (tested in a mixture with another compound), for which the T/C is 95 % of control (endpoint: mean survival time, dose: 100.0 mg/kg/injection, schedule: Q01DX009 (ip), vehicle: saline with Tween-80); 95 % of control (endpoint: mean survival time, dose: 200.0 mg/kg/injection, schedule: Q01DX009 (ip), vehicle: saline with Tween-80); 90 % of control (endpoint: mean survival time, dose: 400.0 mg/kg/injection, schedule: Q01DX009 (ip), vehicle: saline with Tween-80).

For the compound `CC(C)Oc1ccc2c(c1)Sc1ccc(Cl)cc1N2`, the T/C is 93 % of control under setting [1], 96 % of control under setting [2] and 102 % of control under setting [3].

For `CC(C)CCNC(=O)NS(=O)(=O)c1ccc(N)cc1`, the T/C is 102 % of control under setting [1], 102 % of control under setting [2] and 98 % of control under setting [3].

Turning to `[Cl-].[NH-]CCN(CC[NH-])CCN.[O-][Cl+3]([O-])([O-])O.[O-][Cl+3]([O-])([O-])O.[Pt+2]`, the T/C (endpoint: mean survival time, dose: 12.5 mg/kg/injection, schedule: Q04DX003 (ip), vehicle: saline with Tween-80) was 97 % of control.

As to `CCOC(=O)C(C(C)=O)c1cc(NS(=O)(=O)c2ccccc2)ccc1O` (centres undefined), the T/C is 114 % of control under setting [1], 103 % of control under setting [2] and 105 % of control under setting [3].

In the case of `CSc1ccccc1C1=CCCCC1`, the T/C is 95 % of control under setting [4], 93 % of control under setting [5] and 98 % of control under setting [6].

For the compound `CC(=O)CC(=O)c1cccnc1`, the T/C was 103 % of control under setting [1], 97 % of control under setting [2] and 101 % of control under setting [3].

Turning to `COC(=O)C(C)C1(O)CCCCC1` (centres undefined), the T/C was 97 % of control under setting [1], 95 % of control under setting [2] and 98 % of control under setting [3].

For the compound `CCCCn1cnc2c(=S)nc[nH]c21`, the T/C runs as follows: (endpoint: mean survival time, dose: 32.0 mg/kg/injection, schedule: Q01DX009 (ip), vehicle: saline) 118 % of control and 105 % of control; (endpoint: mean survival time, dose: 64.0 mg/kg/injection, schedule: Q01DX009 (ip), vehicle: saline) 112 % of control and 115 % of control; (endpoint: mean survival time, dose: 100.0 mg/kg/injection, schedule: Q01DX007 (ip), vehicle: saline) 113 % of control; (endpoint: mean survival time, dose: 100.0 mg/kg/injection, schedule: Q03DX003 (ip), vehicle: saline) 102 % of control; under setting [4], 97 % of control; (endpoint: mean survival time, dose: 128.0 mg/kg/injection, schedule: Q01DX009 (ip), vehicle: saline) 118 % of control. Besides, the T/C runs as follows: (endpoint: mean survival time, dose: 200.0 mg/kg/injection, schedule: Q01DX007 (ip), vehicle: saline) 162 % of control; (endpoint: mean survival time, dose: 200.0 mg/kg/injection, schedule: Q01DX009 (ip), vehicle: saline) 165 % of control; (endpoint: mean survival time, dose: 200.0 mg/kg/injection, schedule: Q03DX003 (ip), vehicle: saline) 122 % of control; under setting [5], 118 % of control; (endpoint: mean survival time, dose: 256.0 mg/kg/injection, schedule: Q01DX009 (ip), vehicle: saline) 153 % of control and 169 % of control; (endpoint: mean survival time, dose: 400.0 mg/kg/injection, schedule: Q01DX007 (ip), vehicle: saline) 115 % of control. In addition, the T/C is, setting by setting: (endpoint: mean survival time, dose: 400.0 mg/kg/injection, schedule: Q01DX009 (ip), vehicle: saline) 102 % of control; (endpoint: mean survival time, dose: 400.0 mg/kg/injection, schedule: Q03DX003 (ip), vehicle: saline) 168 % of control; under setting [6], 163 % of control; (endpoint: median survival time, dose: 25.0 mg/kg/injection, schedule: Q01DX009 (ip), vehicle: saline with Tween-80) 124 % of control and 107 % of control; (endpoint: median survival time, dose: 50.0 mg/kg/injection, schedule: Q01DX009 (ip), vehicle: saline with Tween-80) 122 % of control; (endpoint: median survival time, dose: 100.0 mg/kg/injection, schedule: Q01DX009 (ip), vehicle: saline with Tween-80) 164 % of control. The T/C was 154 % of control and 164 % of control (endpoint: median survival time, dose: 200.0 mg/kg/injection, schedule: Q01DX009 (ip), vehicle: saline with Tween-80); 122 % of control (endpoint: median survival time, dose: 400.0 mg/kg/injection, schedule: Q01DX009 (ip), vehicle: saline with Tween-80).
